Experimental data: US9510598B2, “Nitrogen-containing heterocyclic compounds for plant disease control” (BAYER CROPSCIENCE AG, priority 2012, dated 2016)
Values joined by “and” are separate entries in the source; they are usually repeats but may differ in a detail not shown here. Identical values can stand only once. Like-named read-outs stand apart in the source and are kept apart here.

Assays:
physchem = details: pH 2.7
Protocol: Measurement of log P values was performed according EEC directive 79/831 Annex V.A8 by HPLC (High Performance Liquid Chromatography) on reversed phase columns with the following methods: ^[a]

[1] = type: physicochemical; details: for chromatographic logP: pH 2.7; for log P: method [a]: HPLC/LC-MS on reversed phase at pH 2.7, 0.1% formic acid in water / acetonitrile, linear gradient 10% to 95% acetonitrile
Peronospora parasitica = experiment: In vivo preventive test on Peronospora parasitica (crucifer downy mildew); details: 500 ppm; cabbage plants sprayed 24 hours before contamination; grading 5 days after contamination vs control plants
Protocol: Cabbage plants (Eminence variety) in starter cups, sown on a 50/50 peat soil-pozzolana substrate and grown at 18-20° C., are treated at the cotyledon stage by spraying with the aqueous suspension described above. Plants, used as controls, are treated with an aqueous solution not containing the active material. After 24 hours, the plants are contaminated by spraying them with an aqueous suspension of Peronospora parasitica spores (50.000 spores per ml). The spores are collected from infected plant. The contaminated cabbage plants are incubated for 5 days at 20° C., under a humid atmosphere. Grading is carried out 5 days after the contamination, in comparison with the control plants.

Pyrenophora teres = experiment: In vivo preventive test on Pyrenophora teres (net blotch on barley); details: 500 ppm; barley plants sprayed 24 hours before contamination; grading 12 days after contamination vs control plants
Protocol: Barley plants (“Plaisant” variety), sown in starter cups on a 50/50 peat soil-pozzolana substrate and grown at 22° C. (12 h)/20° C. (12 h), are treated at the 1-leaf stage (10 cm height) by spraying with the active ingredient prepared as described above. Plants, used as controls, are treated with the mixture of acetone/tween/DMSO/water not containing the active material. After 24 hours, the plants are contaminated by spraying the leaves with an aqueous suspension of Pyrenophora teres spores (12 000 spores per ml). The spores are collected from a 12-day-old culture. […] Grading (% of efficacy) is carried out 12 days after the contamination, in comparison with the control plants.

Puccinia recondita = experiment: In vivo preventive test on Puccinia recondita (brown rust on wheat); details: 500 ppm; wheat plants sprayed 24 hours before contamination; grading 10 days after contamination vs control plants
Procedure, shortened: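 Wheat (Scipion) grown at 22° C./20° C. (12 h each), sprayed with active ingredient at 1-leaf stage (10 cm); controls sprayed with acetone/tween/DMSO/water lacking active. Leaves inoculated 24 hours later with Puccinia recondita spore suspension (100 000 spores per ml).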

Septoria tritici = experiment: In vivo preventive test on Septoria tritici (leaf spot on wheat); details: 500 ppm; wheat plants sprayed 24 hours before contamination; grading 21 to 28 days after contamination vs control plants
Procedure, shortened: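 Scipion wheat at 1-leaf stage sprayed with compound, controls receiving acetone/tween/DMSO/water vehicle; 24 h later leaves inoculated with Septoria tritici spores (500 000 spores per ml). Efficacy (%) graded versus control plants 21 to 28 days after contamination.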

Phytophthora infestans = type: in vivo; details: 500 ppm; tomato plants sprayed 24 hours before contamination; grading 5 days after contamination vs control plants
Botrytis cinerea = experiment: In vivo preventive test on Botrytis cinerea (grey mould); details: 500 ppm; gherkin plants sprayed 24 hours before contamination; grading 4-5 days after contamination vs control plants
Procedure, shortened: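 Gherkin plants ("Vert petit de Paris") sprayed with compound at Z11 cotyledon stage, then inoculated 24 h later with B. cinerea spores (50 000/ml) in PDB/fructose/NH4NO3/KH2PO4 nutrient solution. Incubated at 17 °C, 80% RH; % efficacy versus solvent-treated controls graded 4–5 days after contamination.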

Uromyces appendiculatus = experiment: In vivo preventive test on Uromyces appendiculatus (bean rust); details: 500 ppm; bean plants sprayed 24 hours before contamination; grading 10 days after contamination vs control plants
Procedure, shortened: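 Saxa bean plants grown at 24° C were sprayed at the 2-leaf stage (9 cm). Controls got the acetone/tween/DMSO/water carrier without active material. Leaves were inoculated 24 hours later with a Uromyces appendiculatus spore suspension (150 000 spores per ml).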

Sphaerotheca fuliginea = experiment: In vivo preventive test on Sphaerotheca fuliginea (powdery mildew on cucurbits); details: 500 ppm; gherkin plants sprayed 24 hours before contamination; grading 12 days after contamination vs control plants
Procedure, shortened: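 Preventive spray of gherkin plants at Z11 cotyledon stage, grown at 24° C; inoculation 24 hours later with Sphaerotheca fuliginea spores (100 000 spores per ml). Efficacy graded 12 days post-inoculation as % versus solvent-treated control plants.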

Alternaria brassicae = experiment: In vivo preventive test on Alternaria brassicae (leaf spot on radish); details: 500 ppm; radish plants sprayed 24 hours before contamination; grading 5 days after contamination vs control plants
Procedure, shortened: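 Radish plants ('Pernod Clair', grown at 17 °C) were spray-treated at the 2-leaf stage; controls received solvent mix only. After 24 h, leaves were sprayed with 50 000 spores/ml from 15-day-old cultures, and % efficacy was graded 5 days post-inoculation against controls.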

Row | SMILES | chromatographic logP (physchem) | chromatographic logP [1] | Grading, protection (Peronospora parasitica) | % of efficacy (protection) (Pyrenophora teres) | % of efficacy (protection) (Puccinia recondita) | log P [1] | % of efficacy (protection) (Septoria tritici) | % of efficacy (protection) (Phytophthora infestans) | % of efficacy (protection) (Botrytis cinerea) | % of efficacy (protection) (Uromyces appendiculatus) | % of efficacy (protection) (Sphaerotheca fuliginea) | % of efficacy (protection) (Alternaria brassicae)
1 | CC1(C(=O)O)CC(c2ccc3ncc(Cl)cc3c2)=NO1 (stereo not drawn) [Compound No. II-01, 3-(3-chloroquinolin-6-yl)-5-methyl-4,5-dihydro-1,2-oxazole-5-carboxylic acid] | 1.87 | 1.87 |  |  |  |  |  |  |  |  |  | 
2 | CC1(C(=O)O)CC(c2ccc3ncc(I)cc3c2)=NO1 (stereo not drawn) [Compound No. II-09] | 2.05 | 1.93 |  |  |  |  |  |  |  |  |  | 
3 | COC(=O)C1(C)CC(c2ccc3ncc(Cl)cc3c2)=NO1 (stereo not drawn) [II-23, methyl 3-(3-chloroquinolin-6-yl)-5-methyl-4,5-dihydro-1,2-oxazole-5-carboxylate] | 2.58 | 2.58 |  |  |  |  |  |  |  |  |  | 
4 | CC(C)NC(=O)C1(C(F)(F)F)CC(c2ccc3ncc(Br)cc3c2)=NO1 (stereo not drawn) [compound 36] |  |  | 98% | 79% | 79% | 3.52^[a] | 100% |  |  |  |  | 
5 | C#Cc1cnc2ccc(C3=NOC(C)(C(=O)NCc4cn(CC)nc4C)C3)cc2c1 (stereo not drawn) [compound 43] |  |  | 94% |  | 75% | 2.14^[a] |  | 100% | 100% | 97% | 100% | 
6 | CCn1cc(CNC(=O)C2(OC)CC(c3ccc4ncc(Br)cc4c3)=NO2)c(C)n1 (stereo not drawn) [compound 47] |  |  | 100% | 75% |  | 2.31^[a] | 100% |  | 95% |  |  | 
7 | COC1(C(=O)NC(C)C)CC(c2ccc3ncc(Br)cc3c2)=NO1 (stereo not drawn) [compound 48] |  |  | 98% | 93% | 89% | 2.64^[a] | 100% | 100% | 100% | 96% | 100% | 97%
8 | CCCn1cc(CNC(=O)C2(C)CC(c3ccc4ncc(Br)cc4c3)=NO2)c(C)n1 (stereo not drawn) [compound 49] |  |  | 100% |  |  | 2.64^[a] | 79% and 97% | 100% | 100% |  | 98% | 
